Series [1] has as its system rat aorta smooth muscle cells (RASM). The experiment in a line: Protection from oxidative stress: MDA levels, O2^- generated by xanthine oxidase/xanthine. In kind it is cell-based. Conditions: xanthine oxidase/xanthine system; comparable with, or even greater than SOD. How it is done:
(§1) The primary targets of the cytotoxic action of ROS are the membrane lipids, which are peroxidised with the formation of malondialdehyde (MDA). This can be measured spectrophotometrically using the chromogen that is generated from the reaction of MDA with thiobarbituric acid. This measurement is consequently a reliable indicator of ROS-induced cell damage.
(§2) Cultures of rat aorta smooth muscle cells (RASM) were prepared in a medium in which O2^- was generated both by means of the xanthine oxidase/xanthine enzymatic system and by RAW 264.7 macrophages stimulation with fMLP (see the two diagrams shown below, respectively).

The test system is the same in series [2]. The experiment in a line: Protection from oxidative stress: MDA levels, O2^- generated by fMLP-stimulated RAW 264.7 macrophages. Format: cell-based. The conditions noted are these: RAW 264.7 macrophages stimulated with fMLP; comparable with, or even greater than SOD. How it is done: as §1, §2
The test system of series [3] is fMLP-stimulated RAW 264.7 macrophages. As to the kind of experiment: O2^- scavenging in cultures of fMLP-stimulated macrophages, Fe(II)cytC oxidation. In kind it is cell-based. The text has this: The chemotactic peptide fMLP triggers a specific inflammatory activation of the macrophages, which produce high levels of O2^-, that are measurable spectrophotometrically by means of the oxidation of the Fe(II)cytC chromogen.

Series [4] deals with O2^-. The experiment in a line: O2^- scavenging in a cell-free system (xanthine/xanthine oxidase), NBT oxidation. Format: biochemical. The conditions noted are these: compound at 10^-5 M; baseline 294±12 sec.; p<0.01. The text has this: (§3) In vitro, the xanthine oxidase enzyme metabolises the xanthine substrate and generates uric acid and O2 as products of the reaction, which can be measured spectrophotometrically by oxidation of the NBT chromogen.

Series [5] concerns RAW 264.7 macrophages. The experiment in a line: Toxicity: viability of macrophage cultures. Format: cell-based. How it is done: The viability of the cultures of RAW 264.7 macrophages was measured at various intervals (24, 48, 72 h) after adding increasing concentrations of the compound of Example 2 (10^-7 M- 10^-4 M).
The test system of series [6] is xanthine oxidase enzyme. The experiment in a line: Uric acid levels in the xanthine/xanthine oxidase system (check for enzyme inhibition). In kind it is biochemical.
Sequence of xanthine oxidase enzyme (P47989 whole entry, species assumed): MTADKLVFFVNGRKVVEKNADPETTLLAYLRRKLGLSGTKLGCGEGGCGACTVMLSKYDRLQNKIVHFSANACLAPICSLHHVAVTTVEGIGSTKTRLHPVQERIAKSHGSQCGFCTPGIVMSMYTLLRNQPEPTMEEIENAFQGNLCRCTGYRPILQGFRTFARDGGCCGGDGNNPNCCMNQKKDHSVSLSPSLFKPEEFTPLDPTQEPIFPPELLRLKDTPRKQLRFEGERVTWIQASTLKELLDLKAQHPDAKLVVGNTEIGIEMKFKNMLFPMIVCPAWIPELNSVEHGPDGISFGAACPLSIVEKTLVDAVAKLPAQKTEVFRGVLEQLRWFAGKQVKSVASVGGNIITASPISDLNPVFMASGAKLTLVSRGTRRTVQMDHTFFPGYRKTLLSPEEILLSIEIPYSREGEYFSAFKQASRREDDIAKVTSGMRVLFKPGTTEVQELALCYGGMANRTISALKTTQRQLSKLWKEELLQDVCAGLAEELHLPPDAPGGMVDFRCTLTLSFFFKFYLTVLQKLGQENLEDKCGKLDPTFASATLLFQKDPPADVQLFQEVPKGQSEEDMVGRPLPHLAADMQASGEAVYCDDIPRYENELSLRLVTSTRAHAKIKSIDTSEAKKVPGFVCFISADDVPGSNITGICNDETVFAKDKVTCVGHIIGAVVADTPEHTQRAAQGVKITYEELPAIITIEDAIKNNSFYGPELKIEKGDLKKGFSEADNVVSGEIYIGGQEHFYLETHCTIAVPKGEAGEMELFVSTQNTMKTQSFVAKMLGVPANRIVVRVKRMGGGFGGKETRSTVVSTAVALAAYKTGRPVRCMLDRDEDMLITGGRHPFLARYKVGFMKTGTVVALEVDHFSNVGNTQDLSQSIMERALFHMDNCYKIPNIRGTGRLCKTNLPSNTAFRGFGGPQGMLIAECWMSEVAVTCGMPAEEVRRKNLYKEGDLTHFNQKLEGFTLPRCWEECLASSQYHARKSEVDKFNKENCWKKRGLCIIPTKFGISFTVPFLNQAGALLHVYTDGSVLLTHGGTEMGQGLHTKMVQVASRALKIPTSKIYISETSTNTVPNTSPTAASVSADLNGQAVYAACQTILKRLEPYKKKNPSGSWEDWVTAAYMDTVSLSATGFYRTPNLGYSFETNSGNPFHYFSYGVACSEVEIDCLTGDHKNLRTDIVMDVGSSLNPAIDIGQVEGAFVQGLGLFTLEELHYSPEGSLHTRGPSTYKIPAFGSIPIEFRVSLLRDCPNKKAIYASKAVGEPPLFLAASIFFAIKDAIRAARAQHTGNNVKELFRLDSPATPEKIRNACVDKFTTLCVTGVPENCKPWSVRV
Description: as §3

As for “Mn(4,10-dimethyl-1,4,7,10-tetraazacyclododecane-1,7-diacetate) 2H2O) [Example 2]”, the “levels of MDA in the RASM cells” value in series [1] and in series [2] was “significantly reduced” each time. Moreover, in series [3] (10^-9-10^-6 M), the “levels of oxidised Fe(II)cytC” value was “dose-dependent, significant reduction”. Further, the “activity when pre-incubated and then removed from the cell cultures before adding the activating stimulus” value in series [3] (pre-incubation, removal before fMLP) is “remains active”. Also, the IC50 in series [3] (reduction of O2^- generated by fMLP-activated macrophages, read-out: 50% inhibiting concentration (IC50%)) amounted to 60 nM. Moreover, the “time taken to oxidise 50% of the NBT” value in series [4] is 390 ± 16 s. For the same substance, the “cytotoxicity (viability of the cultures)” value in series [5] (10^-7 M-10^-4 M, 24, 48, 72 h, effect only after 72 hours and at 10^-5-10^-4 M) was “mildly cytotoxic only after incubation times of 72 hours and at the greatest concentrations”. Also, in series [5] (concentrations of the order of 0.1 milligrams/litre), the “cell toxicity at active concentrations” value is recorded as “no cell toxicity”. For the same substance, the “levels of uric acid” value in series [6] is listed as “does not reduce the levels of uric acid”.
For MnSO4 [reference compound], the “effectiveness in reducing O2^- levels generated by fMLP-activated macrophages” value in series [3] (Figure 2) is reported as “entirely ineffective”.

For the origin of these results see patent EP2340020B1, “MANGANESE AND COBALT COMPLEXES, THEIR PREPARATION AND USE” (GP Investimenti S.r.l., priority 2008, dated 2010).
